Assay results as given in patent US9243281B2, “Neuroprotective chemicals and methods for identifying and using same” (Board of Regents of The University of Texas System, priority 2013, dated 2016).

Tests used:
[1] = tested on: hippocampal neurogenesis (Dentate Gyrus); experiment: in vivo neurogenesis assay (BrdU+ cells in dentate gyrus); set-up: species or system mice; conditions: living mice; vehicle (DMSO) 7.3
Excerpt: The screen was simple in concept. With help from chemists in the Department of Biochemistry at UTSWMC, we selected 1,000 druglike chemicals from the 250,000 compounds in our high throughput screening center. The compounds were selected to preserve representative chemical diversity of the entire library. They were further selected to enhance the representation of chiral molecules, and to avoid untoward chemical properties such as reactive moieties. The 1,000 molecules were randomly pooled into groups of ten, and each pool was administered directly into the left ventricle of two adult mice. Intracranial delivery was facilitated by stereotactic positioning of a canula fed directly by an Alzet mini-pump containing the mixture of ten chemicals. The drug mixture was administered over a week-long period at concentrations anticipated to deliver mid-nanomolar levels of the ten test compounds. Daily injections of the thymidine analog, bromodeoxyuridine (BrdU), were coadministered in order to monitor the formation of new hippocampal nerve cells. Following compound administration, animals were sacrificed such that brain tissue could be recovered, sectioned and stained with antibodies to BrdU. […]

p70 (NAMPT) = target: T1, p70 (NAMPT) (Homo sapiens, UniProt P43490); experiment: binding competition for photo-crosslinking of P7C3-S326 to p70 in H2122 cells; conditions: 0.3 μM P7C3-S326 plus 5 μM competitor, p70 band intensity, P7C3-S326 alone compared with plus competitor, vehicle 1.0
T1 construct: endogenous in cells; host or cells: H2122 lung cancer cells
Experimental: Cultured cells were co-exposed to P7C3-S326 (0.3 uM) and the individual P7C3 variants (5 uM), exposed to UV light, lysed, clicked to a fluorescent dye and run on SDS gels (FIG. 11).
P7C3-S326 was diluted to 0.3 μM in culture medium to treat H2122 cells. After incubation at 37° C. for 2 hours, H2122 cells were irradiated for 15 minutes under 306 nm ultraviolet light in a Stratalinker 2400 (Stratagene). Cells were then harvested by dissolving in 1% SDS lysis buffer 50 mM HEPES, pH 8.0, 2 mM MgCl2, 10 mM KCl, 1% SDS, 50 units/ml of Benzonase (Sigma), supplemented with Sigmafast protease inhibitor (Sigma).
The reaction was incubated at room temperature with constant agitation at 1,000 rpm on a thermomixer (Eppendorf) for 1 hour. Samples were then mixed with SDS sample loading buffer and loaded on an 8% SDS-PAGE gel, separated, and imaged using a Typhoon imager (filter settings: excitation 533 nm, emission 555 nm, and high sensitivity).
H2122 cells were incubated with the P7C3-S326 (0.3 μM) in the absence or presence of P7C3 analogs for 2 hours following by UV crosslinking. […] The samples were run on SDS-PAGE gels scanned using a Typhoon Imager. The p70 band intensity was analyzed and quantified by Image J, and the relative intensity in each assay was normalized to that of the DMSO control.

T1 sequence (P43490 whole entry): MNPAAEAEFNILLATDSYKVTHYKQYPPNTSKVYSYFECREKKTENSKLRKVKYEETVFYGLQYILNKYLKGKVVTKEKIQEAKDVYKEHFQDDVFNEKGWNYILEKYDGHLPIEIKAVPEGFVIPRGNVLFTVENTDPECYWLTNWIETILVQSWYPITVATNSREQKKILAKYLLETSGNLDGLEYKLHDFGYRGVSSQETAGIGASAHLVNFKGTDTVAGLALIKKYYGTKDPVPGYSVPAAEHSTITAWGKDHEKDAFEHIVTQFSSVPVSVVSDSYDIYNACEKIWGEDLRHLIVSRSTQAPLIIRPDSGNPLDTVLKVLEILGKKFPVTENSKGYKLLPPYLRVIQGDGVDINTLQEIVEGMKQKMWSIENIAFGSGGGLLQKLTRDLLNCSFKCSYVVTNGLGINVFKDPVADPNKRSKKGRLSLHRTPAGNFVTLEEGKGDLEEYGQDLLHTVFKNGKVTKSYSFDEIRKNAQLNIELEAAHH

SMILES | Neurogenesis # BrdU+ Cells (X10E06)/mm3 Dentate Gyrus [1] | Binding competition (p70 (NAMPT))
Cc1cc2c3cc(Br)ccc3n(CC(O)COc3ccccc3)c2cn1 (centres unmarked) [S190] | 8.4 (X10E06)/mm3 | 4.1
OC(CNC1CCCCC1)Cn1c2ccc(Br)cc2c2cc(Br)ccc21 (centres unmarked) [S109] | 9.4 (X10E06)/mm3 | 1.2
Oc1cccc(SCC(O)CC2c3ccc(Br)cc3-c3cc(Br)ccc32)c1 (centres unmarked) [S91] | 8.2 (X10E06)/mm3 | 3.4
CNCCC=C1c2ccccc2CCc2ccccc21.Cl [S89, Nortriptyline, reference compound] | 8.7 (X10E06)/mm3 | 1.3
CN[C@H]1CC[C@@H](c2ccc(Cl)c(Cl)c2)c2ccccc21 [S123, Zoloft, reference compound] | 9.4 (X10E06)/mm3 | 1.5
Cc1ccc2c(c1)c1cc(Br)ccc1n2CC(=O)O [S240] | 14.3 (X10E06)/mm3 | 1.7
CN(C)C(=O)COc1ccc(NCC(F)Cn2c3ccc(Br)cc3c3cc(Br)ccc32)cc1 (centres unmarked) [S70] | 7.4 (X10E06)/mm3 | 2.5
CN(C)CCCC1(c2ccc(F)cc2)OCc2cc(C#N)ccc21 (centres unmarked) [S119, Celexa, reference compound] | 8.6 (X10E06)/mm3 | 1.2
N#Cc1ccc(N(CC(O)COc2ccccc2)c2ccc(Br)cc2)nc1 (centres unmarked) [S136] | 6.5 (X10E06)/mm3 | 5.7
CC(C)(C)NCC(O)CN1c2ccccc2CCc2ccccc21 (centres unmarked) [S145] | 12.5 (X10E06)/mm3 | 2.6
O=S(=O)(CC(O)Cn1c2ccc(Br)cc2c2cc(Br)ccc21)c1ccc(O)cc1 (centres unmarked) [S94] | 8.5 (X10E06)/mm3 | 3.8
Cc1cc(C)n(CC(O)Cn2c3ccc(Br)cc3c3cc(Br)ccc32)n1 (centres unmarked) [S25] | 7.0 (X10E06)/mm3 | 1.4
COc1cccc(NCC(O)Cn2c3ccc(C)cc3c3cc(C)ccc32)c1 (centres unmarked) [S2] | 8.1 (X10E06)/mm3 | 3.7
O=C(O)c1cc2c(cn1)[nH]c1ccc(Br)cc12 [S206] | 14.8 (X10E06)/mm3 | 1.4
OC(CCNc1ccccc1)Cn1c2ccc(Br)cc2c2cc(Br)ccc21 (centres unmarked) [S32] | 13.8 (X10E06)/mm3 | 2.7
[O-][n+]1cccc2c1c1cc(Br)ccc1n2CC(O)COc1ccccc1 (centres unmarked) [S198] | 11.0 (X10E06)/mm3 | 5.1
N#Cc1ccc2c(c1)c1cc(C#N)ccc1n2CC(O)COc1ccccc1 (centres unmarked) [S111] | 12.3 (X10E06)/mm3 | 4.1
COc1cccc(N(/C=C/Cn2c3ccc(Br)cc3c3cc(Br)ccc32)S(=O)(=O)C(F)(F)F)c1 [S179] | 17.3 (X10E06)/mm3 | 0.9
COc1cccc(NCC(O)Cn2c3ccc(C#N)cc3c3cc(C#N)ccc32)c1 (centres unmarked) [S65] | 12.9 (X10E06)/mm3 | 3.3
O=C(O)c1ccc2[nH]c3ccc(Br)cc3c2c1 [S225] | 15.2 (X10E06)/mm3 | 2.2
OC(COc1ccccc1)Cn1c2ccncc2c2cc(Br)ccc21 (centres unmarked) [S183] | 7.7 (X10E06)/mm3 | 4.0
OC(CN1c2ccccc2CCc2ccccc21)Cn1ccc2ccccc21 (centres unmarked) [S132] | 11.4 (X10E06)/mm3 | 1.3
OC(COC1CCCCC1)Cn1c2ccc(Br)cc2c2cc(Br)ccc21 (centres unmarked) [S178] | 13.8 (X10E06)/mm3 | 1.7
O=S(=O)(CC(O)Cn1c2ccc(Cl)cc2c2cc(Cl)ccc21)c1ccccc1 (centres unmarked) [S52] | 10.8 (X10E06)/mm3 | 4.3
NC(COc1ccccc1)Cn1c2ccc(Br)cc2c2cc(Br)ccc21 (centres unmarked) [S97] | 7.6 (X10E06)/mm3 | 2.0
